Literature values as cited in PMC6843445, “Pharmacokinetic Properties of Fluorescently Labelled Hydroxypropyl-Beta-Cyclodextrin” (Biomolecules, 2019).
Read-outs that look alike come from different tables or passages of the source.

Assays:
[1] = design: method as in ref [4],[27] = [4]; PMID 16018907; doi:10.1016/j.fct.2005.03.007; 4. Gould S. Scott R.C. 2-Hydroxypropyl-beta-cyclodextrin (HP-b-CD): A toxicology review Food Chem. Toxicol. 2005 43 1451 1459 10.1016/j.fct.2005.03.007 16018907 || [27]; 27. Committee for Human Medicinal Products (CHMP), European Medicines Agency Cyclodextrins Used as Excipients. EMA/CHMP/333892/2013 9 10 2017 Available online: http://www.ema.europa.eu/docs/en_GB/docu; conditions: rats; ref [4],[27]; cited from earlier work
[2] = design: method as in ref [4] = [4]; PMID 16018907; doi:10.1016/j.fct.2005.03.007; 4. Gould S. Scott R.C. 2-Hydroxypropyl-beta-cyclodextrin (HP-b-CD): A toxicology review Food Chem. Toxicol. 2005 43 1451 1459 10.1016/j.fct.2005.03.007 16018907; conditions: rats, 4–7 days 225 mg/kg/day i.v.; ref [4]; cited from earlier work
[3] = design: method as in PMID 28803710; conditions: patients with NPC1, lumbar intrathecal; ref [2]; cited from earlier work
Caco-2 cells = system: Caco-2 cells; design: method as in PMID 27317368, PMID 20434542; conditions: HPBCD with different DS; ref [6],[7]; cited from earlier work
[4] = design: method as in ref [4] = [4]; PMID 16018907; doi:10.1016/j.fct.2005.03.007; 4. Gould S. Scott R.C. 2-Hydroxypropyl-beta-cyclodextrin (HP-b-CD): A toxicology review Food Chem. Toxicol. 2005 43 1451 1459 10.1016/j.fct.2005.03.007 16018907; conditions: rats; ref [4]; cited from earlier work
[5] = design: method as in ref [4] = [4]; PMID 16018907; doi:10.1016/j.fct.2005.03.007; 4. Gould S. Scott R.C. 2-Hydroxypropyl-beta-cyclodextrin (HP-b-CD): A toxicology review Food Chem. Toxicol. 2005 43 1451 1459 10.1016/j.fct.2005.03.007 16018907; conditions: dogs; ref [4]; cited from earlier work
[6] = design: method as in PMID 23611577; conditions: pigs, 2 week 0.25–0.5 g/kg/infusion; ref [9]; cited from earlier work
[7] = design: method as in PMID 27317368, PMID 20434542; conditions: HPBCD with different DS; ref [6],[7]; cited from earlier work
[8] = design: method as in PMID 22552390; conditions: rats, subcutaneous long-term, daily dose of 200 mg/kg; ref [8]; cited from earlier work
[9] = design: method as in PMID 30521943; conditions: after 30 min; ref [21]; cited from earlier work

## CC(O)COC[C@H]1O[C@@H]2O[C@H]3[C@H](O)[C@@H](O)[C@@H](O[C@H]4[C@H](O)[C@@H](O)[C@@H](O[C@H]5[C@H](O)[C@@H](O)[C@@H](O[C@H]6[C@H](O)[C@@H](O)[C@@H](O[C@H]7[C@H](O)[C@@H](O)[C@@H](O[C@H]8[C@H](O)[C@@H](O)[C@@H](O[C@H]1[C@H](O)[C@H]2O)O[C@@H]8COCC(C)O)O[C@@H]7COCC(C)O)O[C@@H]6COCC(C)O)O[C@@H]5COCC(C)O)O[C@@H]4COCC(C)O)O[C@@H]3COCC(C)O (stereo partly drawn) [HPBCD, 2-Hydroxypropyl-beta-cyclodextrin]
[1]
  no observed adverse effect levels (NOAELs): 50 mg/kg/day
[2]
  lung findings: foamy macrophage infiltration of the lung
[3]
  disease progression: slowed disease progression
Caco-2 cells
  cytotoxicity on Caco-2 cells: no toxicity
[4]
  organs with the highest HPBCD concentrations: kidneys and lung
[5]
  organs with the highest HPBCD concentrations: kidneys and liver
[6]
  lung findings: inflammatory changes in the lung
[7]
  hemolytic activity: low hemolytic activity
[8]
  bone effect: caused bone loss

## ^68Ga-labeled NODAGA-hydroxypropyl-beta-cyclodextrin [^68Ga-NODAGA-HPBCD]
[9]
  activity in the lung compared to other organs: relatively higher
